In patent US9695155B2, “Herbicidal substituted pyrimidinyloxy benzene compounds” (E. I. DU PONT DE NEMOURS AND COMPANY, priority 2013, dated 2017):

Legend:
[1] = system: deadnettle; assay: Test D preemergence; type: in vivo, Lamium amplexicaule; settings: Lamium amplexicaule, pre-emergence
Summary of the method: (§1)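 Values are 0–100 visual control ratings (0 none, 100 complete) given 7–21 days after application. Soil for preemergence was silt loam; postemergence plants stood 2–18 cm tall.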

[2] = system: speedwell; assay: Test D preemergence; type: in vivo, Veronica persica; settings: Veronica persica, pre-emergence
Summary of the method: as §1

[3] = system: spring wheat; assay: Test D preemergence; type: in vivo, Triticum aestivum; settings: Triticum aestivum, pre-emergence
Summary of the method: as §1

[4] = system: winter wheat; assay: Test D preemergence; type: in vivo, Triticum aestivum; settings: Triticum aestivum, pre-emergence
Summary of the method: as §1

[5] = system: wild oat; assay: Test D preemergence; type: in vivo, Avena fatua; settings: Avena fatua, pre-emergence
Summary of the method: as §1

[6] = system: bluegrass; assay: Test D postemergence; type: in vivo, Poa annua; settings: Poa annua, post-emergence, Postemergence, scale 0 to 100 (0 no effect, 100 complete control), read-out: Plant response rating, Bluegrass
Summary of the method: as §1

[7] = system: field poppy; assay: Test D postemergence; type: in vivo, Papaver rhoeas; settings: Papaver rhoeas, post-emergence
Summary of the method: as §1

[8] = system: field violet; assay: Test D postemergence; type: in vivo, Viola arvensis; settings: Viola arvensis, post-emergence
Summary of the method: as §1

[9] = system: soybean; assay: Test E postemergence; type: in vivo, Glycine max; settings: Glycine max, post-emergence
Summary of the method: (§2)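 Test chemicals formulated in a non-phytotoxic solvent mixture containing a surfactant were applied preemergence to seeds in silt loam soil or postemergence to plants at the 1- to 4-leaf stage in potting mix. After 14 to 21 days in a greenhouse, injury was visually rated against controls on a 0-100 scale (0 = no effect, 100 = complete control).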

[10] = system: waterhemp_RES2 (ALS & HPPD resistant common waterhemp); assay: Test E postemergence; type: in vivo, Amaranthus rudis; settings: Amaranthus tuberculatus, post-emergence, read-out: Plant response rating, Waterhemp_RES2
Summary of the method: as §2

[11] = system: waterhemp; assay: Test E postemergence; type: in vivo, Amaranthus rudis; settings: Amaranthus tuberculatus, post-emergence, read-out: Plant response rating, Waterhemp
Summary of the method: as §2

[12] = system: Brazilian crabgrass; assay: Test E postemergence; type: in vivo, Digitaria horizontalis; settings: Digitaria horizontalis, post-emergence, read-out: Plant response rating, Crabgrass, Brazil
Summary of the method: as §2

[13] = Postemergence, 31 g ai/ha, scale 0 to 100
[14] = Postemergence, 62 g ai/ha, scale 0 to 100
[15] = Postemergence, 125 g ai/ha, scale 0 to 100
[16] = postemergence, 8 g ai/ha, scale 0 to 100, 0 no effect, 100 complete control
[17] = postemergence, 16 g ai/ha, scale 0 to 100, 0 no effect, 100 complete control

## Clc1cnc(Oc2ccccc2-n2cc(Br)cn2)nc1 [Compound 7, 2-[2-(4-bromo-1H-pyrazol-1-yl)phenoxy]-5-chloropyrimidine]
[1]; 16 g ai/ha, scale 0 (no effect) to 100 (complete control), read-out: Plant response rating, Deadnettle
  pest or weed control at 16 g/ha: 0%
[1]; 31 g ai/ha, scale 0-100, read-out: Plant response rating, Deadnettle
  pest or weed control at 31 g/ha: 0%
[1]; 62 g ai/ha, scale 0-100, read-out: Plant response rating, Deadnettle
  pest or weed control at 62 g/ha: 10%
[1]; 125 g ai/ha, scale 0-100, read-out: Plant response rating, Deadnettle
  pest or weed control at 125 g/ha: 20%
[1]; 250 g ai/ha, scale 0-100, read-out: Plant response rating, Deadnettle
  pest or weed control at 250 g/ha: 80%
[2]; 16 g ai/ha, scale 0 (no effect) to 100 (complete control), read-out: Plant response rating, Speedwell
  pest or weed control at 16 g/ha: 20%
[2]; 31 g ai/ha, scale 0 (no effect) to 100 (complete control), read-out: Plant response rating, Speedwell
  pest or weed control at 31 g/ha: 50%
[2]; 62 g ai/ha, scale 0-100, read-out: Plant response rating, Speedwell
  pest or weed control at 62 g/ha: 100%
[2]; 125 g ai/ha, scale 0-100, read-out: Plant response rating, Speedwell
  pest or weed control at 125 g/ha: 100%
[2]; 250 g ai/ha, scale 0-100, read-out: Plant response rating, Speedwell
  pest or weed control at 250 g/ha: 100%
[3]; 16 g ai/ha, scale 0 (no effect) to 100 (complete control), read-out: Plant response rating, Wheat, Spring
  plant injury at 16 g/ha: 0%
[3]; 31 g ai/ha, scale 0 (no effect) to 100 (complete control), read-out: Plant response rating, Wheat, Spring
  plant injury at 31 g/ha: 0%
[3]; 62 g ai/ha, scale 0-100, read-out: Plant response rating, Wheat, Spring
  plant injury at 62 g/ha: 0%
[3]; 125 g ai/ha, scale 0-100, read-out: Plant response rating, Wheat, Spring
  plant injury at 125 g/ha: 0%
[3]; 250 g ai/ha, scale 0-100, read-out: Plant response rating, Wheat, Spring
  plant injury at 250 g/ha: 0%
[4]; 16 g ai/ha, scale 0 (no effect) to 100 (complete control), read-out: Plant response rating, Wheat, Winter
  plant injury at 16 g/ha: 0%
[4]; 31 g ai/ha, scale 0 (no effect) to 100 (complete control), read-out: Plant response rating, Wheat, Winter
  plant injury at 31 g/ha: 0%
[4]; 62 g ai/ha, scale 0-100, read-out: Plant response rating, Wheat, Winter
  plant injury at 62 g/ha: 0%
[4]; 125 g ai/ha, scale 0-100, read-out: Plant response rating, Wheat, Winter
  plant injury at 125 g/ha: 5%
[4]; 250 g ai/ha, scale 0-100, read-out: Plant response rating, Wheat, Winter
  plant injury at 250 g/ha: 10%
[5]; 16 g ai/ha, scale 0 (no effect) to 100 (complete control), read-out: Plant response rating, Oat, Wild
  pest or weed control at 16 g/ha: 0%
[5]; 31 g ai/ha, scale 0-100, read-out: Plant response rating, Oat, Wild
  pest or weed control at 31 g/ha: 0%
[5]; 62 g ai/ha, scale 0-100, read-out: Plant response rating, Oat, Wild
  pest or weed control at 62 g/ha: 0%
[5]; 125 g ai/ha, scale 0-100, read-out: Plant response rating, Oat, Wild
  pest or weed control at 125 g/ha: 10%
[5]; 250 g ai/ha, scale 0-100, read-out: Plant response rating, Oat, Wild
  pest or weed control at 250 g/ha: 10%
[6]; 16 g ai/ha
  pest or weed control at 16 g/ha: 0%
[6]; 31 g ai/ha
  pest or weed control at 31 g/ha: 0%
[6]; 62 g ai/ha
  pest or weed control at 62 g/ha: 0%
[6]; 125 g ai/ha
  pest or weed control at 125 g/ha: 10%
[6]; 250 g ai/ha
  pest or weed control at 250 g/ha: 15%
[7]; 16 g ai/ha, scale 0-100, read-out: Plant response rating, Field Poppy
  pest or weed control at 16 g/ha: 10%
[7]; 31 g ai/ha, scale 0 to 100 (0 no effect, 100 complete control), read-out: Plant response rating, Field Poppy
  pest or weed control at 31 g/ha: 20%
[7]; 62 g ai/ha, scale 0 to 100 (0 no effect, 100 complete control), read-out: Plant response rating, Field Poppy
  pest or weed control at 62 g/ha: 50%
[7]; 125 g ai/ha, scale 0 to 100 (0 no effect, 100 complete control), read-out: Plant response rating, Field Poppy
  pest or weed control at 125 g/ha: 50%
[7]; 250 g ai/ha, scale 0 to 100 (0 no effect, 100 complete control), read-out: Plant response rating, Field Poppy
  pest or weed control at 250 g/ha: 60%
[8]; 16 g ai/ha, scale 0-100, read-out: Plant response rating, Field Violet
  pest or weed control at 16 g/ha: 10%
[8]; 31 g ai/ha, scale 0 to 100 (0 no effect, 100 complete control), read-out: Plant response rating, Field Violet
  pest or weed control at 31 g/ha: 20%
[8]; 62 g ai/ha, scale 0 to 100 (0 no effect, 100 complete control), read-out: Plant response rating, Field Violet
  pest or weed control at 62 g/ha: 70%
[8]; 125 g ai/ha, scale 0 to 100 (0 no effect, 100 complete control), read-out: Plant response rating, Field Violet
  pest or weed control at 125 g/ha: 70%
[8]; 250 g ai/ha, scale 0 to 100 (0 no effect, 100 complete control), read-out: Plant response rating, Field Violet
  pest or weed control at 250 g/ha: 70%
[9]; [13]
  plant response (crop injury) rating, soybean, 0-100 scale at 31 g/ha: 90%
[9]; [14]
  plant response (crop injury) rating, soybean, 0-100 scale at 62 g/ha: 98%
[9]; [15]
  plant response (crop injury) rating, soybean, 0-100 scale at 125 g/ha: 98%
[9]; [16]
  plant response (crop injury) rating, soybean, 0-100 scale at 8 g/ha: 60%
[9]; [17]
  plant response (crop injury) rating, soybean, 0-100 scale at 16 g/ha: 80%
[10]; [13]
  pest or weed control at 31 g/ha: 80%
[10]; [14]
  pest or weed control at 62 g/ha: 90%
[10]; [15]
  pest or weed control at 125 g/ha: 95%
[10]; [17]
  pest or weed control at 16 g/ha: 75%
[11]; [13]
  pest or weed control at 31 g/ha: 90%
[11]; [14]
  pest or weed control at 62 g/ha: 90%
[11]; [15]
  pest or weed control at 125 g/ha: 90%
[11]; [16]
  pest or weed control at 8 g/ha: 70%
[11]; [17]
  pest or weed control at 16 g/ha: 80%
[12]; [13]
  pest or weed control at 31 g/ha: 10%
[12]; [14]
  pest or weed control at 62 g/ha: 20%
[12]; [15]
  pest or weed control at 125 g/ha: 30%
[12]; [16]
  pest or weed control at 8 g/ha: 0%
[12]; [17]
  pest or weed control at 16 g/ha: 0%
